Experimental data from patent US10611740B2, “Aryl dihydro-2H-benzo[b][1,4]oxazine sulfonamide and related compounds for use as agonists of RORγ and the treatment of disease” (Lycera Corporation, priority 2015, dated 2020).

Columns and labels:
RORγ-LBD = biological target: T1, RORγ-LBD (Homo sapiens, UniProt P51449); assay: RORγ-Ligand Binding Domain (LBD) TR-FRET Assay; format: biochemical;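 on TR-FRET Assay Max Response: 665/615 nm ratio relative to signal without ursolic acid or compound set at 100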
T1 construct: made in house; host or cells: SF9 cells (baculovirus)
T1 sequence (P51449 269-508 limits assumed): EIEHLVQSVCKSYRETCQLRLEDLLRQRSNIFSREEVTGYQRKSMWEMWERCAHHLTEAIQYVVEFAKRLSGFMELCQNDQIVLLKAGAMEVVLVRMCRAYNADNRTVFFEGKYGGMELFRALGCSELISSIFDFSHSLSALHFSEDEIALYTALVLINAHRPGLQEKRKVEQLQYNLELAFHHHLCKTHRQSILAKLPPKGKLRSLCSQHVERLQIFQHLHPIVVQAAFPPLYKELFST
In short: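 Lysate from SF9 cells expressing His-RORγ-LBD is diluted to about 3 nM final in 50 mM Tris pH 7.0 assay buffer. A biotin-tagged SRC1 LXXLL peptide goes in at 200 nM final, plus ursolic acid at 2 μM final. Test compounds carry 1% DMSO final; signal read by TR-FRET.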

Gal4-RORγ-LBD = biological target: T2, Gal4-RORγ-LBD (Homo sapiens, UniProt P51449); assay: Gal4-RORγ Luciferase Reporter Assay in HEK-293T Cells; format: cell-based; conditions: HEK-293 cells, luciferase reporter, with 2 μM ursolic acid
T2 construct: expressed in transfected cells; host or cells: HEK-293 cells (pcDNA3.1neo plasmid)
T2 sequence (P51449 269-508 limits assumed): T1 sequence (P51449 269-508 limits assumed)
In short: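 In transfected HEK-293 cells (Gal4-RORγ-LBD, Gal4-luciferase), test agents with 2 μM ursolic acid were incubated overnight at 37 °C before luminescent detection. Values are relative to the ursolic-acid-free, compound-free signal (100).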

Row | SMILES | EC50 (RORγ-LBD) | TR-FRET Assay Max Response (RORγ-LBD) | EC50 (Gal4-RORγ-LBD) | Gal4-RORγ Assay Max Response (Gal4-RORγ-LBD)
1 | COc1ccc(-c2ccc3c(c2)N(S(=O)(=O)c2cccc(C(F)(F)F)c2)C[C@H](CCC(=O)O)O3)cc1 [Compound 2U, (S)-3-(6-(4-methoxyphenyl)-4-((3-(trifluoromethyl)phenyl)-sulfonyl)-3,4-dihydro-2H-benzo[b][1,4]oxazin-2-yl)propanoic acid] | < 0.5 µM | *** (The symbol “***” indicates a value in the range of greater than 150 to 200) | 0.5 to 5 µM | * (The symbol “*” indicates a value in the range of 25 to 90)
2 | COc1cncc(-c2ccc3c(c2)N(S(=O)(=O)c2cccc(C(F)(F)F)c2)C[C@H](CCC(=O)O)O3)c1 [Compound 2V, (S)-3-(6-(5-methoxypyridin-3-yl)-4-((3-(trifluoromethyl)-phenyl)sulfonyl)-3,4-dihydro-2H-benzo[b][1,4]oxazin-2-yl)propanoic acid] | < 0.5 µM | *** (The symbol “***” indicates a value in the range of greater than 150 to 200) | < 0.5 µM | ** (The symbol “**” indicates a value in the range of greater than 90 to 150)
3 | O=C(O)CC[C@H]1CN(S(=O)(=O)c2cccc(C(F)(F)F)c2)c2cc(-c3ccc(F)cc3Cl)ccc2O1 [Compound 2W, (S)-3-(6-(2-chloro-4-fluorophenyl)-4-((3-(trifluoromethyl)phenyl)-sulfonyl)-3,4-dihydro-2H-benzo[b][1,4]oxazin-2-yl)propanoic acid] | < 0.5 µM | *** (The symbol “***” indicates a value in the range of greater than 150 to 200) | 0.5 to 5 µM | ** (The symbol “**” indicates a value in the range of greater than 90 to 150)
4 | Cc1ccc(-c2ccc3c(c2)N(S(=O)(=O)c2cccc(C(F)(F)F)c2)C[C@H](CCC(=O)O)O3)cc1 [Compound 2X, (S)-3-(6-(p-tolyl)-4-((3-(trifluoromethyl)phenyl)-sulfonyl)-3,4-dihydro-2H-benzo[b][1,4]oxazin-2-yl)propanoic acid] | < 0.5 µM | **** (The symbol “****” indicates a value greater than 200) | < 0.5 µM | ** (The symbol “**” indicates a value in the range of greater than 90 to 150)
5 | CC(C)c1cccc(-c2ccc3c(c2)N(S(=O)(=O)c2cccc(C(F)(F)F)c2)C[C@H](CCC(=O)O)O3)c1 [Compound 2Y, (S)-3-(6-(3-isopropylphenyl)-4-((3-(trifluoromethyl)phenyl)-sulfonyl)-3,4-dihydro-2H-benzo[b][1,4]oxazin-2-yl)propanoic acid] | < 0.5 µM | *** (The symbol “***” indicates a value in the range of greater than 150 to 200) | < 0.5 µM | ** (The symbol “**” indicates a value in the range of greater than 90 to 150)
6 | CC(C)c1ccc(-c2ccc3c(c2)N(S(=O)(=O)c2cccc(C(F)(F)F)c2)C[C@H](CCC(=O)O)O3)cc1 [Compound 2Z, (S)-3-(6-(4-isopropylphenyl)-4-((3-(trifluoromethyl)phenyl)-sulfonyl)-3,4-dihydro-2H-benzo[b][1,4]oxazin-2-yl)propanoic acid] | < 0.5 µM | ** (The symbol “**” indicates a value in the range of greater than 90 to 150) | > 10 µM | –
7 | O=C(O)CC[C@H]1CN(S(=O)(=O)c2cccc(C(F)(F)F)c2)c2cc(-c3cc(C(F)(F)F)ccn3)ccc2O1 [Compound 3, (S)-3-(4-((3-(trifluoromethyl)phenyl)sulfonyl)-6-(4-(trifluoromethyl)pyridin-2-yl)-3,4-dihydro-2H-benzo[b][1,4]oxazin-2-yl)propanoic acid] | < 0.5 µM | *** (The symbol “***” indicates a value in the range of greater than 150 to 200) | 0.5 to 5 µM | *** (The symbol “***” indicates a value in the range of greater than 150 to 200)
8 | O=C(O)CC[C@H]1CN(S(=O)(=O)c2cccc(C(F)(F)F)c2)c2cc(-c3cccc(C(F)(F)F)n3)ccc2O1 [Compound 4A, (S)-3-(4-((3-(trifluoromethyl)-phenyl)sulfonyl)-6-(6-(trifluoromethyl)pyridin-2-yl)-3,4-dihydro-2H-benzo[b][1,4]oxazin-2-yl)propanoic acid] | < 0.5 µM | *** (The symbol “***” indicates a value in the range of greater than 150 to 200) | < 0.5 µM | *** (The symbol “***” indicates a value in the range of greater than 150 to 200)
9 | CCOc1cccc(-c2ccc3c(c2)N(S(=O)(=O)c2cccc(C(F)(F)F)c2)C[C@H](CCC(=O)O)O3)c1F [Compound 4AA, (S)-3-(6-(3-ethoxy-2-fluorophenyl)-4-((3-(trifluoromethyl)phenyl)sulfonyl)-3,4-dihydro-2H-benzo[b][1,4]oxazin-2-yl)propanoic acid] | < 0.5 µM | **** (The symbol “****” indicates a value greater than 200) | < 0.5 µM | ** (The symbol “**” indicates a value in the range of greater than 90 to 150)
10 | O=C(O)CC[C@H]1CN(S(=O)(=O)c2cccc(C(F)(F)F)c2)c2cc(-c3cccc(OCCO)c3)ccc2O1 [Compound 4AB, (S)-3-(6-(3-(2-hydroxyethoxy)-phenyl)-4-((3-(trifluoromethyl)phenyl)-sulfonyl)-3,4-dihydro-2H-benzo[b][1,4]oxazin-2-yl)propanoic acid] | > 10 µM | – | > 10 µM | –
11 | CC(C)n1cc(-c2ccc3c(c2)N(S(=O)(=O)c2cccc(C(F)(F)F)c2)C[C@H](CCC(=O)O)O3)cn1 [Compound 4AC, (S)-3-(6-(1-isopropyl-1H-pyrazol-4-yl)-4-((3-(trifluoromethyl)phenyl)sulfonyl)-3,4-dihydro-2H-benzo[b][1,4]oxazin-2-yl)propanoic acid] | < 0.5 µM | **** (The symbol “****” indicates a value greater than 200) | < 0.5 µM | * (The symbol “*” indicates a value in the range of 25 to 90)
12 | O=C(O)CC[C@H]1CN(S(=O)(=O)c2cccc(C(F)(F)F)c2)c2cc(-c3cccnc3-c3ccccc3)ccc2O1 [Compound 4AD, (S)-3-(6-(2-phenylpyridin-3-yl)-4-((3-(trifluoromethyl)-phenyl)sulfonyl)-3,4-dihydro-2H-benzo[b][1,4]oxazin-2-yl)propanoic acid] | > 10 µM | – | > 10 µM | –
13 | Cc1ncccc1-c1ccc2c(c1)N(S(=O)(=O)c1cccc(C(F)(F)F)c1)C[C@H](CCC(=O)O)O2 [Compound 4AE, (S)-3-(6-(2-methylpyridin-3-yl)-4-((3-(trifluoromethyl)-phenyl)sulfonyl)-3,4-dihydro-2H-benzo[b][1,4]oxazin-2-yl)propanoic acid] | < 0.5 µM | **** (The symbol “****” indicates a value greater than 200) | 0.5 to 5 µM | ** (The symbol “**” indicates a value in the range of greater than 90 to 150)
